Laboratory results: patent US7989469B2, “Certain chemical entities, compositions, and methods” (Cytokinetics, Incorporated, priority 2008, dated 2011)

system: rabbit skeletal muscle myofibril preparations (approximately 90% fast fibers); assay: Activation of fast skeletal muscle fibers: enzymatic activity of myofibril preparations (PUMA assay system); assay type: biochemical; set-up: unit not given here; conditions: detergent treated myofibrils at pCa25%, 500 μM ATP; cells marked †: Mean value
Excerpt: Fast fiber activators were identified by measuring the enzymatic activity of muscle myofibril preparations using the proprietary PUMA™ (see, e.g., U.S. Pat. Nos. 6,410,254, 6,743,599, 7,202,051, and 7,378,254) assay system. Myofibril preparations consisted of rabbit skeletal muscle (approximately 90% fast fibers) that had been treated with a detergen (triton X-100) to remove cellular membranes and then homogenized. This preparation retained all of the sarcomeric components in a native conformation and the enzymatic activity was still regulated by calcium. Compounds were tested using a myofibril suspension and a level of calcium sufficient to increase enzymatic activity of the myofibrils to 25% of their maximal rate (termed pCa25%). Enzymatic activity was tracked via a kinetic assay with a UV absorption readout. Hits were identified as compounds that increased the rate of enzymatic activity by greater than 40% at 40 μM. Myofibril preparations are calcium regulated and were screened at a level of calcium sufficient to produce a 25% increase in enzymatic rate. Detergent treated myofibrils were incubated with 500 μM ATP and 40 μM compound and a kinetic read of UV absorbance performed. Data was normalized to control wells.

In the case of “6-chloro-7-(3-chlorophenyl)-1-(ethylpropyl)imidazo[4,5-b]pyridin-2-ol”, the “AC1.4 Median” value is reported as 0.330†.
With “6-chloro-7-(4-chloro-3-fluorophenyl)-1-(ethylpropyl)imidazo[4,5-b]pyridin-2-ol” the “AC1.4 Median” value was 0.116†.
With “6-chloro-7-(4-chlorophenyl)-1-(ethylpropyl)imidazo[4,5-b]pyridin-2-ol” the “AC1.4 Median” value was 0.074†.
With “6-chloro-7-(5-chloro(2-pyridyl))-1-(ethylpropyl)imidazo[4,5-b]pyridin-2-ol” the “AC1.4 Median” value was 0.320†.
In the case of “6-chloro-7-(5-chloro(2-thienyl))-1-(ethylpropyl)imidazo[4,5-b]pyridin-2-ol”, the “AC1.4 Median” value is reported as 0.084†.
“7-(3,4-difluorophenyl)-6-chloro-1-(ethylpropyl)imidazo[4,5-b]pyridin-2-ol” was tested, and the “AC1.4 Median” value was 0.106†.
In the case of `CC[C@@H](CO)n1c(O)nc2ncc(Cl)c(-c3ccc(F)cc3)c21` [1-(1S)-1-ethyl-2-hydroxyethyl)-6-chloro-7-(4-fluorophenyl)imidazo[4,5-b]pyridin-2-ol], the “AC1.4 Median” value is reported as 0.363†.
`CC[C@H](n1c(O)nc2ncc(Cl)c(-c3ccc(F)cc3)c21)C(C)(C)O` [1-((1S)-1-ethyl-2-hydroxy-2-methylpropyl)-6-chloro-7-(4-fluorophenyl)imidazo[4,5-b]pyridin-2-ol] was tested, and the “AC1.4 Median” value was 0.320†.
For `CC[C@@H](CO)n1c(O)nc2ncc(Cl)c(-c3ccc(Cl)cc3)c21` [1-((1S)-1-ethyl-2-hydroxyethyl)-6-chloro-7-(4-chlorophenyl)imidazo[4,5-b]pyridin-2-ol], the “AC1.4 Median” value was 0.261†.
In the case of `CC[C@@H](CO)n1c(O)nc2ncc(Cl)c(-c3ccc(Cl)s3)c21` [1-((1S)-1-ethyl-2-hydroxyethyl)-6-chloro-7-(5-chloro(2-thienyl))imidazo[4,5-b]pyridin-2-ol], the “AC1.4 Median” value is reported as 0.178†.

same assay, conditions: detergent treated myofibrils at pCa25%, 500 μM ATP; median value (no †)

Point of comparison: `CC[C@H](CO)n1c(O)nc2ncc(Cl)c(-c3ccc(F)c(F)c3)c21` [1-((1R)-1-ethyl-2-hydroxyethyl)-7-(3,4-difluorophenyl)-6-chloroimidazo[4,5-b]pyridin-2-ol], “AC1.4 Median” value 4.034. Against it:
- 6-chloro-7-(2-chloro-4-methoxyphenyl)-1-(ethylpropyl)imidazo[4,5-b]pyridin-2-ol — lower, 1.898
- 6-chloro-7-(2-chloro-4-methylphenyl)-1-(ethylpropyl)imidazo[4,5-b]pyridin-2-ol — lower, 0.587
- 6-chloro-7-(3-chloro(4-pyridyl))-1-(ethylpropyl)imidazo[4,5-b]pyridin-2-ol — higher, 4.471
- 6-chloro-7-(5-chloro(2-pyridyl))-1-(methylethyl)imidazo[4,5-b]pyridin-2-ol — lower, 1.781
- 6-chloro-7-(5-chloro(3-pyridyl))-1-(ethylpropyl)imidazo[4,5-b]pyridin-2-ol — lower, 1.899
- 6-chloro-7-(5-fluoro(2-pyridyl))-1-(methylethyl)imidazo[4,5-b]pyridin-2-ol — lower, 2.323
- 7-(1H-indazol-6-yl)-6-chloro-1-(ethylpropyl)imidazo[4,5-b]pyridin-2-ol — higher, 4.216
- CC[C@@H](n1c(O)nc2ncc(Cl)c(-c3ccc(F)cc3)c21)C(C)(C)O [1-((1R)-1-ethyl-2-hydroxy-2-methylpropyl)-6-chloro-7-(4-fluorophenyl)imidazo[4,5-b]pyridin-2-ol] — lower, 0.537
- CC[C@@H](n1c(O)nc2ncc(Cl)c(-c3ccc(F)cn3)c21)C(C)(C)O [1-((1R)-1-ethyl-2-hydroxy-2-methylpropyl)-6-chloro-7-(5-fluoro(2-pyridyl))imidazo[4,5-b]pyridin-2-ol] — higher, 8.386
- CC[C@H](CO)n1c(O)nc2ncc(Cl)c(-c3ccc(F)cc3)c21 [1-((1R)-1-ethyl-2-hydroxyethyl)-6-chloro-7-(4-fluorophenyl)imidazo[4,5-b]pyridin-2-ol] — lower, 2.367
- CC[C@H](CO)n1c(O)nc2ncc(Cl)c(-c3ccc(F)cn3)c21 [1-((1R)-1-ethyl-2-hydroxyethyl)-6-chloro-7-(5-fluoro(2-pyridyl))imidazo[4,5-b]pyridin-2-ol] — higher, 7.658
- CC[C@H](CC(C)(C)O)n1c(O)nc2ncc(Cl)c(-c3ccc(F)cc3)c21 [1-((1R)-1-ethyl-3-hydroxy-3-methylbutyl)-6-chloro-7-(4-fluorophenyl)imidazo[4,5-b]pyridin-2-ol] — lower, 2.9192
- CC[C@H](CCO)n1c(O)nc2ncc(Cl)c(-c3ccc(F)cc3)c21 [1-((1R)-1-ethyl-3-hydroxypropyl)-6-chloro-7-(4-fluorophenyl)imidazo[4,5-b]pyridin-2-ol] — lower, 2.547
- CC[C@@H](C)n1c(O)nc2nccc(-n3cccn3)c21 [1-((1R)-1-methylpropyl)-7-pyrazolylimidazo[4,5-b]pyridin-2-ol] — higher, 18.6973
- CC[C@H](CN)n1c(O)nc2ncc(Cl)c(-c3ccc(F)cc3)c21 [1-((1R)-2-amino-1-ethylethyl)-6-chloro-7-(4-fluorophenyl)imidazo[4,5-b]pyridin-2-ol] — higher, 46.969
- C[C@H](CO)n1c(O)nc2ncc(Cl)c(-c3ccc(F)cc3)c21 [1-((1R)-2-hydroxy-isopropyl)-6-chloro-7-(4-fluorophenyl)imidazo[4,5-b]pyridin-2-ol] — higher, 11.044
- CC[C@H](n1c(O)nc2ncc(Cl)c(-c3ccc(F)cn3)c21)C(C)(C)O [1-((1S)-1-ethyl-2-hydroxy-2-methylpropyl)-6-chloro-7-(5-fluoro(2-pyridyl))imidazo[4,5-b]pyridin-2-ol] — higher, 6.420
- CC[C@@H](CO)n1c(O)nc2ncc(-c3ccc(F)cc3)c(-c3ccc(F)cc3)c21 [1-((1S)-1-ethyl-2-hydroxyethyl)-6,7-bis(4-fluorophenyl)imidazo[4,5-b]pyridin-2-ol] — higher, 17.720
- CC[C@@H](CO)n1c(O)nc2ncc(Cl)c(-c3cccs3)c21 [1-((1S)-1-ethyl-2-hydroxyethyl)-6-chloro-7-(2-thienyl)imidazo[4,5-b]pyridin-2-ol] — lower, 1.349
- CC[C@@H](CO)n1c(O)nc2ncc(Cl)c(-c3ccsc3)c21 [1-((1S)-1-ethyl-2-hydroxyethyl)-6-chloro-7-(3-thienyl)imidazo[4,5-b]pyridin-2-ol] — lower, 0.827
- CC[C@@H](CO)n1c(O)nc2ncc(Cl)c(-c3ccc(Cl)cc3)c21 [1-((1S)-1-ethyl-2-hydroxyethyl)-6-chloro-7-(4-chlorophenyl)imidazo[4,5-b]pyridin-2-ol] — lower, 2.059
- CC[C@@H](CO)n1c(O)nc2ncc(Cl)c(-c3ccc(OC)cc3)c21 [1-((1S)-1-ethyl-2-hydroxyethyl)-6-chloro-7-(4-methoxyphenyl)imidazo[4,5-b]pyridin-2-ol] — higher, 5.251
- CC[C@@H](CO)n1c(O)nc2ncc(Cl)c(-c3ccc(C)cc3)c21 [1-((1S)-1-ethyl-2-hydroxyethyl)-6-chloro-7-(4-methylphenyl)imidazo[4,5-b]pyridin-2-ol] — lower, 2.194
- CC[C@@H](CO)n1c(O)nc2ncc(Cl)c(-c3ccc(Cl)cn3)c21 [1-((1S)-1-ethyl-2-hydroxyethyl)-6-chloro-7-(5-chloro(2-pyridyl))imidazo[4,5-b]pyridin-2-ol] — higher, 9.592
- CC[C@@H](CO)n1c(O)nc2ncc(Cl)c(-c3ccc(F)cn3)c21 [1-((1S)-1-ethyl-2-hydroxyethyl)-6-chloro-7-(5-fluoro(2-pyridyl))imidazo[4,5-b]pyridin-2-ol] — higher, 7.549
- CC[C@@H](CO)n1c(O)nc2ncc(Cl)c(-c3ccccc3)c21 [1-((1S)-1-ethyl-2-hydroxyethyl)-6-chloro-7-phenylimidazo[4,5-b]pyridin-2-ol] — lower, 1.474
